Experiments:
[1] = Susceptibility to scrambling of Hv1a and diselenide analogs (buffer with or without GSH); type: physicochemical; settings: for susceptibility to scrambling in the presence of GSH: 1 equivalent GSH; for Correctly Folded Toxin, In Buffer, pH 7.2: 45 μL of 250 μM peptide + 45 μL 0.1 M phosphate buffer pH 7.2, 24 h; for Correctly Folded Toxin, In Buffer, pH 7.2 / Correctly Folded Toxin, With 1 Equivalent GSH, pH 7.2: quenched with 1% TFA, analytical RP-HPLC; for Correctly Folded Toxin, With 1 Equivalent GSH, pH 7.2: 45 μL of 250 μM peptide + 45 μL 0.1 M phosphate buffer pH 7.2 containing 250 μM GSH, 24 h
Protocol: Peptide (45 μL of a 250 μM solution) was combined with either 45 μL of buffer (0.1 M phosphate buffer, pH 7.2) or 45 μL of buffer containing 250 μM GSH. After 24 h, the reaction was quenched with 1% TFA and the solution analysed using analytical RP-HPLC.

[2] = tested on: sheep blowflies (Lucilia cuprina); test: Blowfly toxicity assay, injection; type: in vivo; settings: injected into ventro-lateral thoracic region, lethality after 24 h; three tests, n = 10 flies per dose
Protocol: Injection assays using sheep blowflies (Lucilia cuprina) were performed as described. Briefly, peptides were dissolved in insect-saline and injected into the ventro-lateral thoracic region of blowflies (mass 16.5–27.0 mg). Thereafter, flies were individually housed in 2 mL tubes and lethality determined after 24 h.
(§1) Tests for oral toxicity in blowflies were performed as described. In short, peptides were dissolved in 5% sucrose and 3 μL of this solution was applied to the inside of a 2 mL tube containing a single fly (mass 16.8–25.3 mg). Flies were kept in the tube overnight without additional food or water until the sucrose solution was consumed. Thereafter, flies were transferred into 250 mL plastic containers and provided with a sugar cube and wet cotton wool. Each box housed 10 flies that received the same treatment. Oral toxicity was determined three days after the oral application. For both injection and oral toxicity assays, three tests were carried for each peptide, and for each test several doses of peptide (n = 10 flies per dose) were used along with appropriate controls (i.e., insect saline or 5% sucrose solution; n = 20–40). LD50 values were calculated as described previously.

[3] = Midgut permeation assay (Ussing chamber); type: in vitro ADME, Manduca sexta; settings: 10 µM in luminal fluid, separate occasion / different batch of M. sexta, comparison with 1,4-SeSe-Hv1a, 1 h at 30 °C, HPLC/ELISA/MALDI-TOF MS, mean ± S.E.M, n = 11–12 tissues
Protocol: Flat-sheet preparations of the anterior midgut of Manduca sexta were mounted in Ussing-type chambers as previously described [39]. The lumen to hemolymph flux was determined by applying various concentrations of peptide (0.1, 1, and 10 μM) to the luminal side of the tissue and taking aliquots of saline from the hemolymph side after 1 h incubation at 30 °C (n = 9–19 tissues per peptide and dose). […] To check for damage to gut tissues that would allow leakage of peptides through the tissues, 1% amaranth, which is not absorbed across gut epithelia, was added to the luminal side of the tissue. Samples were analysed using a combination of liquid chromatography, enzyme-linked immunosorbent assay (ELISA), and matrix-assisted laser desorption/ionisation time-of-flight mass spectrometry (MALDI-TOF MS) to quantify the amount of intact peptide present on the hemolymph side of the tissue [39].
Chromatography was performed using a Beckman System Gold chromatographic system (Beckman Coulter Ltd., High Wycombe, UK) consisting of a dual pump programmable solvent module 126 and System Gold UV detector module 166. […] Samples were eluted using a linear gradient of 10–60% ACN/0.1% TFA over 50 min at a flow rate of 0.2 mL/min, and elution monitored at 214 nm. […] Absorbance was converted to peptide concentration using standard curves. […]

[4] = tested on: sheep blowflies (Lucilia cuprina); test: Blowfly toxicity assay, oral; type: in vivo; settings: feeding to sheep blowflies; full dose-response curves not determined (Figure 4)
Protocol: as §1

Sarcophaga flesh flies = settings: cited from earlier work
[5] = 0.1 M phosphate buffer pH 7.2, 24 h, RP-HPLC

Row | Molecule | susceptibility to scrambling in the presence of GSH [1, 5] | Correctly Folded Toxin, In Buffer, pH 7.2 [1] | Correctly Folded Toxin, With 1 Equivalent GSH, pH 7.2 [1] | LD50, injection into sheep blowflies [2] | Lumen to Hemolymph Flux [3] | stability in neutral media [1, 5] | oral activity compared with native Hv1a [4] | ratio oral vs. injection LD50 (Sarcophaga flesh flies)
1 | [C4U,C18U]-Hv1a [1,4-SeSe-Hv1a] | only weakly prone to scrambling | 100% | 85% | 407 ± 22 pmol/g | 227 ± 14 pmol/cm^2/h |  |  | 
2 | [C11U,C22U]-Hv1a [2,5-SeSe-Hv1a] | only weakly prone to scrambling | 100% | 82% | 455 ± 35 pmol/g |  |  |  | 
3 | [C17U,C36U]-Hv1a [3,6-SeSe-Hv1a] | more susceptible to scrambling | 95% | 60% | 446 ± 12 pmol/g |  | marginal instability | significantly lower than native Hv1a | 
4 | AaIT: scorpion toxin AaIT (peptide, UniProt P01497 19-88, looked up) Beta-insect excitatory toxin 1: KKNGYAVDSSGKAPECLLSNYCNNECTKVHYADKGYCCLLSCYCFGLNDDKKVLEISDTRKSYCDTTIIN |  |  |  |  |  |  |  | 714

Reference: PMC6164231, “Evaluation of Chemical Strategies for Improving the Stability and Oral Toxicity of Insecticidal Peptides” (Biomedicines, 2018)
